From patent US9993001B2, “Herbicidal composition” (ISHIHARA SANGYO KAISHA, LTD., priority 2014, dated 2018)

Assays:
Format in all cases: in vivo
[1] = test system: barnyardgrass (Echinochloa crus-galli L.); assay: Test Example 15: pot, soil treatment, metobromuron + chlorpropham; settings: soil, read-out: Growth inhibition rate of barnyardgrass (%) Measured value
Source text: (§1) When the herbicidal activity in a case where two active ingredients are combined, is larger than the simple sum of the respective herbicidal activities of the two active ingredients (the expected activity), it is called a synergistic effect. The activity expected by the combination of two active ingredients can be calculated as follows (Colby S. R., “Weed”, vol. 15, p. 20-22, 1967). E=α+β−(α×β[…]) where α: growth inhibition rate when treated with x (g/ha) of herbicide X, • β: growth inhibition rate when treated with y (g/ha) of herbicide Y, • E: growth inhibition rate expected when treated with x (g/ha) of herbicide X and y (g/ha) of herbicide Y.
(§2) On the 19th day after treatment, the state of growth of barnyardgrass was visually observed and evaluated in accordance with the following standards. The growth inhibition rate (%) [measured value] and the growth inhibition rate (%) [calculated value] calculated by the Colby's method, are shown in Table 2.
(§3) Growth inhibition rate (%)=inhibition rate) (%) of 0 (equivalent to the non-treated area) to 100 (complete kill)
Soil was put into a 1/300,000 ha pot, and seeds of barnyardgrass (Echinochloa crus-galli L.) were sown. […]
(§4) On the 21st day after treatment, the state of growth of barnyardgrass was visually observed and evaluated in the same manner as in Test Example 1.

[2] = test system: large crabgrass (Diqitaria sanquinalis L.); assay: Test Example 11: corn field, foliar treatment, metobromuron + nicosulfuron; settings: Digitaria sanguinalis, foliar, read-out: Growth inhibition rate of large crabgrass (%) Measured value
Source text: as §1, §2
(§5) Growth inhibition rate (%)=inhibition rate) (%) of 0 (equivalent to the non-treated area) to 100 (complete kill) […]
On the 30th day after treatment, the state of growth of large crabgrass was visually observed and evaluated in the same manner as in Test Example 1.

[3] = test system: large crabgrass (Digitaria sanquinalis L.); assay: Test Example 29: pot, soil treatment, metobromuron + indanofan; settings: soil, read-out: Growth inhibition rate of large crabgrass (%) Measured value
Source text: as §1, §2, §3
Soil was put into a 1/300,000 ha pot, and seeds of large crabgrass (Digitaria sanquinalis L.) were sown. On the day after seeding, predetermined amounts of SC containing metobromuron as active ingredient (same as in Test Example 1) and WP containing indanofan as active ingredient were diluted with water corresponding to 1,000 L per hectare and applied for soil treatment.
On the 20th day after treatment, the state of growth of large crabgrass was visually observed and evaluated in the same manner as in Test Example 1.

[4] = test system: large crabgrass (Diqitaria sanquinalis L.); assay: Test Example 22: pot, soil treatment, metobromuron + prometryn; settings: Digitaria sanguinalis, soil, read-out: Growth inhibition rate of large crabgrass (%) Measured value
Source text: as §1, §2, §3
Soil was put into a 1/300,000 ha pot, and seeds of barnyardgrass (Echinochloa crus-qalli L.) were sown. On the day after seeding, predetermined amounts of SC containing metobromuron as active ingredient (same as in Test Example 1) and WP containing prometryn as active ingredient (trade name: Gesagard 50, manufactured by Nippon Kayaku Co., Ltd.) were diluted with water corresponding to 1,000 L per hectare and applied for soil treatment.
as §4
The test was carried out in the same manner as in Test Example 21 except that barnyardgrass (Echinochloa crus-qalli L.) was changed to large crabgrass (Diqitaria sanquinalis L.), to obtain the results as shown in Table 23.

polygonaceae weeds = assay: Test Example 10: corn field, soil treatment, metobromuron + pendimethalin; settings: soil, read-out: Growth inhibition rate of Polygonaceae weeds (%) Measured value
Source text: as §1, §2, §5
On the 49th day after treatment, the state of growth of polygonaceae weeds which occurred naturally, was visually observed and evaluated in the same manner as in Test Example 1, The results are shown in Table 11.

[5] = test system: large crabgrass (Digitaria sanquinalis L.); assay: Test Example 28: pot, soil treatment, metobromuron + pendimethalin; settings: soil, read-out: Growth inhibition rate of large crabgrass (%) Measured value
Source text: as §1, §2, §3
(§6) Soil was put into a 1/300,000 ha pot, and seeds of large crabgrass (Digitaria sanquinalis L.) were sown. On the day after seeding, predetermined amounts of SC containing metobromuron as active ingredient (same as in Test Example 1) and EC containing pendimethalin as active ingredient (same as in Test Example 10) were diluted with water corresponding to 1,000 L per hectare and applied for soil treatment.
On the 27th day after treatment, the state of growth of large crabgrass was visually observed and evaluated in the same manner as in Test Example 1.

[6] = test system: redroot pigweed (Amaranthus retroflexus L.); assay: Test Example 9: corn field, soil treatment, metobromuron + S-metolachlor; settings: soil, read-out: Growth inhibition rate of redroot pigweed (%) Measured value
Source text: as §1, §2, §5
On the 49th day after treatment, the state of growth of redroot pigweed (Amaranthus retroflexus L.) which occurred naturally, was visually observed and evaluated in the same manner as in Test Example 1.

[7] = test system: black nightshade (Solanum nigrum L.); assay: Test Example 17: pot, soil treatment, metobromuron + chlorpropham; settings: soil, read-out: Growth inhibition rate of black nightshade (%) Measured value
Source text: as §1, §2, §3
as §6, with “barnyardgrass (Echinochloa crus-galli” for “large crabgrass (Digitaria sanquinalis”, “chlorpropham” for “pendimethalin”, “1)” for “10)”
as §4
The test was carried out in the same manner as in Test Example 15 except that barnyardgrass (Echinochloa crus-galli L.) was changed to black nightshade (Solanum nigrum L.), to obtain the results as shown in Table 18.

[8] = test system: spotted knotweed (Polygonum lapathifolium L.); assay: Test Example 2: soybean field, soil treatment, metobromuron + S-metolachlor; settings: Persicaria lapathifolia, soil, read-out: Growth inhibition rate of spotted knotweed (%) Measured value
Source text: as §1, §2, §5
On the 50th day after treatment, the state of growth of spotted knotweed was visually observed and evaluated in the same manner as in Test Example 1.

CON(C)C(=O)Nc1ccc(Br)cc1 [Metobromuron, 3-(4-bromophenyl)-1-methoxy-1-methylurea]
inhibition at 1500 g/ha [1]: 72%
inhibition at 1000 g/ha [2]: 25%
inhibition at 250 g/ha [3]: 30%
inhibition at 375 g/ha [3]: 50%
inhibition at 562.5 g/ha [3]: 80%
inhibition at 750 g/ha [4]: 33%
inhibition at 1000 g/ha [4]: 50%
inhibition at 1000 g/ha (polygonaceae weeds): 30%
inhibition at 62.5 g/ha [5]: 0%
inhibition at 125 g/ha [5]: 15%
inhibition at 250 g/ha [5]: 35%
inhibition at 1000 g/ha [6]: 25%
inhibition at 1000 g/ha [7]: 78%
inhibition at 1000 g/ha [8]: 58%
